What was measured:
[1] = tested on: Leukemia (SR); assay: Growth inhibition of human tumor cell lines: Leukemia (SR); assay type: cell-based; conditions: cell line A = Leukemia (SR), NCI testing
Method: (§1) Selected compounds were evaluated by the National Cancer Institute, Bethesda, Md. against 60 human tumor cell lines according to procedures described in Principles and Practices of Oncology, volume 3, issue number 10, pp. 1-12. Results of the testing against representative cell lines including the test compound number, and the GI50 values (μM) are set forth in Table 3. The GI50 value is the concentration required to inhibit cell growth by 50% as compared to untreated control cultures.

[2] = tested on: mouse lymphoma cell line L5178Y; assay: Growth inhibition of mouse lymphoma cells (L5178Y), 48 h; assay type: cell-based; conditions: 48 hours; for inhibition at 2 µM: 2 micromolar; for inhibition at 10 µM: 10 micromolar, read-out: Inhibition of growth
Method: Effects of compounds on growth of mouse lymphoma cell line L5178Y, were determined as follows. Cells were grown in Fischer's medium (obtained from Life Technologies, Inc., Gaithersburg, Md.) containing 0.24 grams per liter (g/l) sodium pyruvate, 1.12 g/l surfactant (Pluronic F-68, from BASF Corporation, Parsippany, N.J.), and 10% by volume (10% v/v) heat-inactivated horse serum (obtained from Life Technologies, Inc) at 37° C. To 30 ml aliquots of cell suspension (2×10^4 cells per milliliter (mL)) in exponential growth phase were added test compounds dissolved in dimethylsulfoxide (DMSO) at various concentrations such that the final DMSO concentration in the mixtures was 0.25%. Tubes were gassed with 5% CO2 then incubated on a roller drum apparatus. After 48 hours the cells were treated with 0.1% trypsin (Life Technologies, Inc.,) for 10 minutes and counted in a Coulter Counter equipped with a 140 micrometer (μM) aperture. Percent inhibition of growth was calculated by comparing the number of cells in assays containing test compound with the number of cells in controls lacking the test compound.

[3] = tested on: Small cell lung cancer (DMS 114); assay: Growth inhibition of human tumor cell lines: Small cell lung cancer (DMS 114); assay type: cell-based; conditions: cell line C = Small cell lung cancer (DMS 114), NCI testing
Method: as §1

[4] = tested on: Ovarian cancer (OVCAR8); assay: Growth inhibition of human tumor cell lines: Ovarian cancer (OVCAR8); assay type: cell-based; conditions: OVCAR-8, cell line G = Ovarian cancer (OVCAR8), NCI testing
Method: as §1

[5] = tested on: Colon cancer (HCT116); assay: Growth inhibition of human tumor cell lines: Colon cancer (HCT116); assay type: cell-based; conditions: HCT-116, cell line D = Colon cancer (HCT116), NCI testing
Method: as §1

[6] = tested on: Renal cancer (CAKI1); assay: Growth inhibition of human tumor cell lines: Renal cancer (CAKI1); assay type: cell-based; conditions: CAKI-1, cell line H = Renal cancer (CAKI1), NCI testing
Method: as §1

[7] = tested on: Nonsmall cell lung cancer (NCIH522); assay: Growth inhibition of human tumor cell lines: Nonsmall cell lung cancer (NCIH522); assay type: cell-based; conditions: NCI-H522, cell line B = Nonsmall cell lung cancer (NCIH522), NCI testing
Method: as §1

[8] = tested on: tubulin; assay: Inhibition of microtubule assembly; assay type: biochemical, calf; conditions: preincubated 1 h at 37° C.
Method: (§2) Compounds were evaluated for their ability to inhibit tubulin assembly into microtubules by comparing the extent of cold-reversible assembly in the presence of each test compound with controls lacking the test compound. Tubulin was isolated from calf brain tissue by two cycles of assembly/disassembly as described by Vallee, R. B. in Methods in Enzymology, vol. 134, pp. 89-104. Assay mixtures contained 1 mg/ml of purified tubulin in 1 M sodium glutamate, pH 6.6, 1 millimolar (mM) MgCl2, and the test compound, which was added as a solution in DMSO. The final concentration of DMSO in each assay was 2% (v/v). Assay mixtures were preincubated at 37° C. for 1 h, then chilled on ice for 5 min. Microtubule assembly was initiated by addition of guanosine triphosphate (0.1 mM), and incubation at 37° C. Assembly was followed turbidimetrically at 350 nm for 20 minutes (min) using a temperature-controlled cell in a Cary 2200 spectrophotometer. Since microtubules undergo depolymerization at 0° C., assembly was confirmed by measuring the reduction in turbidity following incubation for 30 min at 0° C. The difference in absorbance before and after incubation for 30 min at 0° C. (ΔA350) represents the extent of microtubule assembly. Inhibition of assembly was calculated by subtracting the (ΔA350) values for treatments with test compounds from the (ΔA350) for controls without test compound, and expressing this difference as a percentage of the (ΔA350) value for the control. Results including test compound number, test compound concentration in micromoles per liter (μM) and percent inhibition are set forth in Table 11.

[9] = tested on: CNS cancer (SF539); assay: Growth inhibition of human tumor cell lines: CNS cancer (SF539); assay type: cell-based; conditions: SF-539, cell line E = CNS cancer (SF539), NCI testing
Method: as §1

[10] = tested on: Melanoma (SKMEL-2); assay: Growth inhibition of human tumor cell lines: Melanoma (SKMEL-2); assay type: cell-based; conditions: SK-MEL-2, cell line F = Melanoma (SKMEL-2), NCI testing
Method: as §1

[11] = tested on: tubulin; assay: Effect of preincubation time with tubulin on inhibition of microtubule assembly; assay type: biochemical, calf; conditions: 16 μM
Method: as §2
Compound 14 (16 μM) was preincubated with tubulin under the conditions described in Example 4 for 0, 1, 2, 4 and 6 hours before initiating assembly by addition of guanosine triphosphate (0.1 mM), and incubation at 37° C. Inhibition of assembly was determined as in Example 4, and results including preincubation time and percent inhibition of assembly are set forth in Table 12.

[12] = tested on: mouse lymphoma cells; assay: Effect on mitosis in mouse lymphoma cells (visible chromosomes); assay type: cell-based; conditions: 2 μM, 7 hours
Method: Compound 14 was dissolved in DMSO at 0.8 mM and 75 microliters (μL) of this solution was added to tubes containing 30 ml of cell suspension at 1.2×10^5 /mL grown under the conditions described in Example 1. Cells in control tubes received 75 μL of DMSO alone. Tubes were gassed with 5% CO2, then incubated on a roller drum apparatus for 7 hours. The cells were treated with hypotonic medium (3-fold diluted growth medium) and fixed in acetic acid:methanol (1:3, v/v). After staining with aceto-orcein (method described in L. La Cour, Stain Technology, vol. 16, pp. 169-174 (1941)) the percentage of cells with visible chromosomes in treated and control cells was determined based on examination of 400 cells per sample.

[13] = Biological activity of enantiomers; conditions: vs corresponding R enantiomers; test not stated

| SMILES | GI50 [1] [µM] | inhibition at 2 µM [2] [%] | GI50 [3] [µM] | GI50 [4] [µM] | GI50 [5] [µM] | GI50 [6] [µM] | GI50 [7] [µM] | Percent inhibition of microtubule assembly ([8]; 50 μM) [%] | GI50 [9] [µM] | GI50 [10] [µM] | other results |
| --- | --- | --- | --- | --- | --- | --- | --- | --- | --- | --- | --- |
| CCC(C)(NC(=O)c1cc(Cl)cc(C=NOC)c1)C(=O)CCl (stereo not shown) [Compound 4] | 0.59 | 95 | 1.54 | 2.62 | 2.58 | 3.07 | 2.14 | 89.8 | 2.31 | 3.24 |  |
| CCC(C)(NC(=O)c1cc(Cl)cc(Cl)c1)C(=O)CCl (stereo not shown) [Compound 14] | 0.83 | 95 | 0.72 | 2.79 | 2.31 | 3.83 | 1.98 | 56.3 | 2.1 | 1.94 | Percent inhibition of microtubule assembly ([11]; preincubation time 0 h): 0%; Percent inhibition of microtubule assembly ([11]; preincubation time 1 h): 5.1%; Percent inhibition of microtubule assembly ([11]; preincubation time 2 h): 22.6%; Percent inhibition of microtubule assembly ([11]; preincubation time 4 h): 57.6%; Percent inhibition of microtubule assembly ([11]; preincubation time 6 h): 87.2%; Normal mitotic figures in treated cells ([12]; vs control): lacking in the treated cells; Number of cells with visible chromosomes ([12]; vs control): produced an increase in the number of cells with visible chromosomes; Percentage of cells with visible chromosomes ([12]; control 3.9): 27.4 Percentage |
| CCC(C)(NC(=O)c1cc(Cl)cc(Cl)c1)C(=O)CSC#N (stereo not shown) [Compound 26] | 5.69 |  | 3.71 | 11.9 | 4.85 | 13.3 | 3.77 | 56.6 | 3.45 | 12.2 | inhibition at 10 µM [2]: 67% |
| CC(C)(NC(=O)c1cc(Cl)cc(Cl)c1)C(=O)C(Br)Br [Compound 17] | 1.79 | 97 | 2.09 | 3 | 3.65 | 2.37 | 1.04 | 85.9 | 2.25 | 2.71 |  |
| CCC(C)(NC(=O)c1cncc(Br)c1)C(=O)CCl (stereo not shown) [Compound 44] | 0.33 | 95 | 0.33 | 1.96 | 0.67 | 2.36 | 0.35 | 100.0 | 2.21 | 0.41 |  |
| CC(C)(NC(=O)c1cc(Cl)cc(Cl)c1)C(=O)CCl [Compound 28] | 3.01 |  | 5.38 | 12.4 | 14.2 | 12.9 | 2.61 | 22.3 | 9.79 | 12.2 | inhibition at 10 µM [2]: 87% |
| CC[C@](C)(NC(=O)c1cc(Cl)cc(Cl)c1)C(=O)CCl [S enantiomer of compound 14] |  |  |  |  |  |  |  |  |  |  | Activity of S enantiomer relative to R enantiomer [13]: more active |
| CCC(C)(NC(=O)c1cccc(Br)c1)C(=O)C(Br)Br (stereo not shown) [Compound 7] | 2.32 | 92 | 1.83 | 3.01 | 3.39 | 2.82 | 1.08 |  | 2.29 | 2.74 | Percent inhibition of microtubule assembly ([8]; 5 μM): 97.0% |
| CCC(C)(NC(=O)c1cc(C)cc(C#N)c1)C(=O)CCl (stereo not shown) [Compound 23] | 0.65 |  | 2.19 | 3.43 | 3.28 | 2.81 | 2.05 | 50.5 | 2.55 | 2.56 | inhibition at 10 µM [2]: 95% |
| CCC(C)(NC(=O)c1cc(Cl)cc(Cl)c1)C(=O)C(Br)Br (stereo not shown) [Compound 13] | 0.28 | 98 | 0.24 | 1.82 | 1.39 | 1.92 | 0.28 |  | 1.9 | 2.08 | Percent inhibition of microtubule assembly ([8]; 5 μM): 90.9% |
| CC[C@](C)(NC(=O)c1cc(Cl)c(C)c(Cl)c1)C(=O)CCl [S enantiomer of compound 32] |  |  |  |  |  |  |  |  |  |  | Activity of S enantiomer relative to R enantiomer [13]: more active |

From patent publication US6140362A, “Method for inhibiting the growth of mammalian cells” (Rohm and Haas Company, priority 1997, dated 2000)
